Results from ChEMBL document CHEMBL4819097, “Identification of an allosteric and Smad3-selective inhibitor of p38αMAPK using a substrate-based approach” (Bioorg Med Chem Lett, 2021).
Activity calls are given as the source filed them. The calls are words filed in the database; no cut-off is given here. Peptide text beside a SMILES is read from it.

Columns and labels:
[1] = molecular target: T1, Mitogen-activated protein kinase 14 (Homo sapiens, UniProt Q16539); assay: Binding affinity to P38alpha MAPK (unknown origin) using Smad3 as substrate incubated for 1 hr in presence of increasing concentration of ATP by ELISA
T1 sequence (Q16539 whole entry): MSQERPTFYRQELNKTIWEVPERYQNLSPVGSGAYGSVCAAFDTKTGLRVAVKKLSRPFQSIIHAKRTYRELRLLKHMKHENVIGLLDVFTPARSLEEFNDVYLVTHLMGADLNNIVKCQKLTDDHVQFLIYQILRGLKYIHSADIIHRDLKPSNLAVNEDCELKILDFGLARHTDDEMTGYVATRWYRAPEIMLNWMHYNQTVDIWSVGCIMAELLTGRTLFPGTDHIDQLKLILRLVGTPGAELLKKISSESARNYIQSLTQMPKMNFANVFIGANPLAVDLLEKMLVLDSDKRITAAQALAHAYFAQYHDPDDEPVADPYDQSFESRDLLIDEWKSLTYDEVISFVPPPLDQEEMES

[2] = molecular target: T1, Mitogen-activated protein kinase 14; assay: Binding affinity to P38alpha MAPK (unknown origin) using Smad3 as substrate incubated for 1 hr in presence of ATP by ELISA based competitive binding potency assay
[3] = molecular target: T1, Mitogen-activated protein kinase 14; assay: Binding affinity to P38alpha MAPK (unknown origin) using MBP as substrate incubated for 1 hr by ELISA
[4] = molecular target: T1, Mitogen-activated protein kinase 14; assay: Binding affinity to recombinant human N-terminal GST-tagged P38alpha MAPK expressed in Escherichia coli using ERKtide as substrate by mobility shift assay
[5] = molecular target: T1, Mitogen-activated protein kinase 14; assay: Binding affinity to P38alpha MAPK (unknown origin) using MAPKAPK2 as substrate incubated for 1 hr by ELISA

| Compound | Activity [1] | IC50 [2] [µM] | IC50 [3] [µM] | IC50 [4] [µM] | IC50 [5] [µM] |
| --- | --- | --- | --- | --- | --- |
| Oc1ccc(-c2nc(-c3ccc(F)cc3)c(-c3ccncc3)[nH]2)cc1 | inactive | – | – | – | – |
| CC[C@H](C)[C@H](N)C(=O)N[C@@H](CCCCN)C(=O)N[C@H](C(=O)N[C@@H](CCCCN)C(=O)N[C@@H](CCCCN)C(=O)N[C@H](C(=O)N[C@@H](CCC(=O)O)C(=O)N[C@@H](CC(=O)O)C(=O)N[C@@H](C)C(=O)N[C@@H](CO)C(=O)N[C@@H](CC(N)=O)C(=O)N1CCC[C@H]1C(=O)N[C@@H](CC(C)C)C(=O)O)[C@@H](C)CC)[C@@H](C)CC (H-IKIKKIEDASNPL-OH) | – | > 1 | – | – | – |
| CC[C@H](C)[C@H](N)C(=O)N[C@@H](CCCCN)C(=O)N[C@H](C(=O)N[C@@H](CCCCN)C(=O)N[C@@H](CCCCN)C(=O)N[C@H](C(=O)N[C@@H](CCC(=O)O)C(=O)N[C@@H](CC(=O)O)C(=O)N[C@@H](C)C(=O)N[C@@H](CO)C(=O)N[C@@H](CC(N)=O)C(=O)N1CCC[C@H]1C(=O)N[C@@H](CC(C)C)C(=O)N[C@@H](CC(C)C)C(=O)N[C@@H](CC(C)C)C(=O)N[C@H](C(=O)N[C@@H](CS)C(=O)N[C@@H](CCCNC(=N)N)C(=O)N[C@@H](CCCNC(=N)N)C(=O)N[C@@H](CCCNC(=N)N)C(=O)N[C@@H](CCCCN)C(=O)N[C@@H](C)C(=O)N[C@@H](CCCNC(=N)N)C(=O)N[C@@H](C)C(=O)N[C@@H](CC(C)C)C(=O)O)[C@@H](C)CC)[C@@H](C)CC)[C@@H](C)CC (H-IKIKKIEDASNPLLLICRRRKARAL-OH) | Active | 0.0013 | > 1 | > 100 | > 1 |
| CC[C@H](C)[C@H](N)C(=O)N[C@@H](CCCCN)C(=O)N[C@H](C(=O)N[C@@H](CCCCN)C(=O)N[C@@H](CCCCN)C(=O)N[C@H](C(=O)N[C@@H](CCC(=O)O)C(=O)N[C@@H](CC(=O)O)C(=O)N[C@@H](C)C(=O)N[C@@H](CO)C(=O)N[C@@H](CC(N)=O)C(=O)N1CCC[C@H]1C(=O)N[C@@H](CC(C)C)C(=O)N[C@@H](CC(C)C)C(=O)N[C@@H](CC(C)C)C(=O)N[C@@H](CCCCN)C(=O)N[C@@H](CCCNC(=N)N)C(=O)N[C@@H](CCCNC(=N)N)C(=O)NCC(=O)O)[C@@H](C)CC)[C@@H](C)CC (H-IKIKKIEDASNPLLLKRRG-OH) | – | 0.3 | – | – | – |
| CC(C)C[C@H](NC(=O)[C@@H](NC(=O)[C@@H]1CCCN1C(=O)[C@@H]1CCCN1C(=O)[C@@H](N)CC(C)C)C(C)C)C(=O)N[C@H](C(=O)N1CCC[C@H]1C(=O)N[C@@H](CCCNC(=N)N)C(=O)N[C@@H](Cc1cnc[nH]1)C(=O)N[C@H](C(=O)N[C@@H](CCC(=O)O)C(=O)O)[C@@H](C)O)C(C)C (H-LPPVLVPRHTE-OH) | – | > 100 | – | > 100 | – |
| CC[C@H](C)[C@H](NC(=O)[C@H](CCC(=O)O)NC(=O)[C@@H](NC(=O)[C@H](Cc1cnc[nH]1)NC(=O)[C@H](CCCNC(=N)N)NC(=O)[C@@H]1CCCN1C(=O)[C@@H](NC(=O)[C@H](CC(C)C)NC(=O)[C@@H](NC(=O)[C@@H]1CCCN1C(=O)[C@@H]1CCCN1C(=O)[C@@H](N)CC(C)C)C(C)C)C(C)C)[C@@H](C)O)C(=O)N1CCC[C@H]1C(=O)N[C@@H](C)C(=O)N[C@@H](CCC(=O)O)C(=O)N[C@@H](Cc1ccccc1)C(=O)N1CCC[C@H]1C(=O)N1CCC[C@H]1C(=O)N[C@@H](CC(C)C)C(=O)N[C@@H](CC(=O)O)C(=O)O (H-LPPVLVPRHTEIPAEFPPLD-OH) | – | > 100 | – | > 100 | – |
| CC[C@H](C)[C@H](NC(=O)[C@H](CCC(=O)O)NC(=O)[C@@H](NC(=O)[C@H](Cc1cnc[nH]1)NC(=O)[C@H](CCCNC(=N)N)NC(=O)[C@@H]1CCCN1C(=O)[C@@H](NC(=O)[C@H](CC(C)C)NC(=O)[C@@H](NC(=O)[C@@H]1CCCN1C(=O)[C@@H]1CCCN1C(=O)[C@@H](N)CC(C)C)C(C)C)C(C)C)[C@@H](C)O)C(=O)N1CCC[C@H]1C(=O)N[C@@H](C)C(=O)N[C@@H](CCC(=O)O)C(=O)N[C@@H](Cc1ccccc1)C(=O)N1CCC[C@H]1C(=O)N1CCC[C@H]1C(=O)N[C@@H](CC(C)C)C(=O)N[C@@H](CC(=O)O)C(=O)N[C@@H](CC(=O)O)C(=O)N[C@@H](Cc1ccc(O)cc1)C(=O)N[C@@H](CO)C(=O)N[C@@H](Cc1cnc[nH]1)C(=O)N[C@@H](CO)C(=O)N[C@H](C(=O)N1CCC[C@H]1C(=O)N[C@@H](CCC(=O)O)C(=O)N[C@@H](CC(N)=O)C(=O)O)[C@@H](C)CC (H-LPPVLVPRHTEIPAEFPPLDDYSHSIPEN-OH) | – | > 100 | – | > 100 | – |
| CC[C@H](C)[C@H](NC(=O)[C@H](CCCCN)NC(=O)[C@H](CC(C)C)NC(=O)CNC(=O)[C@@H]1CCCN1C(=O)[C@H](CC(N)=O)NC(=O)[C@H](CCCNC(=N)N)NC(=O)[C@H](CCCCN)NC(=O)[C@H](CCCCN)NC(=O)CNC(=O)[C@H](CCCCN)NC(=O)[C@@H](N)CO)C(=O)N1CCC[C@H]1C(=O)O (H-SKGKKRNPGLKIP-OH) | – | 2.6 | – | > 100 | – |
| CC(C)C[C@H](NC(=O)[C@H](C)NC(=O)[C@H](CCCNC(=N)N)NC(=O)[C@H](C)NC(=O)[C@H](CCCCN)NC(=O)[C@H](CCCNC(=N)N)NC(=O)[C@H](CCCNC(=N)N)NC(=O)[C@H](CCCNC(=N)N)NC(=O)[C@H](CCCCN)NC(=O)[C@H](CC(C)C)NC(=O)[C@H](CC(C)C)NC(=O)[C@H](CC(C)C)NC(=O)[C@@H]1CCCN1C(=O)[C@H](CC(N)=O)NC(=O)[C@@H](N)CO)C(=O)O (H-SNPLLLKRRRKARAL-OH) | – | 0.29 | – | – | – |
| CC[C@H](C)[C@H](NC(=O)[C@H](Cc1c[nH]c2ccccc12)NC(=O)CNC(=O)[C@H](CC(C)C)NC(=O)[C@H](CC(C)C)NC(=O)[C@H](CCCNC(=N)N)NC(=O)[C@H](CS)NC(=O)[C@@H](NC(=O)[C@@H](NC(=O)[C@@H](NC(=O)[C@@H]1CCCN1C(=O)[C@@H]1CCCN1C(=O)[C@@H](NC(=O)[C@H](Cc1ccccc1)NC(=O)[C@@H]1CCCN1C(=O)[C@H](CC(C)C)NC(=O)[C@@H](NC(=O)[C@H](CO)NC(=O)[C@@H](N)CO)[C@@H](C)CC)[C@@H](C)O)[C@@H](C)CC)C(C)C)[C@@H](C)CC)C(=O)N[C@@H](CS)C(=O)N[C@@H](CCCCN)C(=O)NCC(=O)N[C@@H](CCC(=O)O)C(=O)O (H-SSILPFTPPIVICRLLGWICKGE-OH) | – | 9 | – | > 100 | – |
